According to publication PMC9862111, “Isolation of the Lanostane Triterpenes Pholiols L–S from Pholiota populnea and Evaluation of Their Antiproliferative and Cytotoxic Activities” (Pharmaceuticals, 2023):

Key:
[1] = tested on: 5-LOX; parameters: method as in PMID 36279964; settings: read-out: IC50 against 5-LOX; cited from earlier work
[2] = tested on: COX-2; parameters: method as in PMID 36279964; settings: read-out: IC50 against COX-2; cited from earlier work
[3] = tested on: resistant colon adenocarcinoma cells (Colo 320); parameters: method as in PMID 35293752; settings: read-out: Cytotoxic activity IC50 Colo 320; cited from earlier work
[4] = tested on: sensitive (Colo 205) colon adenocarcinoma cells; parameters: method as in PMID 35293752; settings: read-out: Cytotoxic activity IC50 Colo 205; cited from earlier work
[5] = tested on: Colo 320 cells; parameters: method as in PMID 35293752; settings: checkerboard method; cited from earlier work
[6] = Cytotoxic MTT assay, 24 h; settings: human, MRC-5 embryonic lung fibroblast cells
Procedure: (§2) Cell Line Cultures: The human colon adenocarcinoma cell lines, Colo 205 (ATCC-CCL-222) doxorubicin-sensitive parent and Colo320/MDR-LRP (ATCC-CCL-220.1) doxorubicin resistant expressing ABCB1, were purchased from LGC Promochem (Teddington, UK). The cells were cultured in RPMI-1640 medium supplemented with 10% heat-inactivated fetal bovine serum (FBS), 2 mM L-glutamine, 1 mM Na-pyruvate, 100 mM HEPES. The MRC-5 (ATCC CCL-171) human embryonic lung fibroblast cell line and the hormone-responsive breast cancer cell line MCF-7 (ATCC HTB-22) were purchased from Sigma-Aldrich (Merck KGaA, Darmstadt, Germany). The MCF-7 and MRC-5 cells were cultured in Eagle’s Minimal Essential Medium (EMEM) containing 4.5 g/L of glucose and supplemented with a non-essential amino acid mixture, a selection of vitamins, and 10% FBS. The cell lines were incubated at 37 °C, 5% CO2, and 95% air atmosphere. The cells were detached with Trypsin-Versene (EDTA) solution for 5 min at 37 °C. The human non-small cell lung cancer cell line A549 was kindly provided by Brigitte Marian (Institute of Cancer Research, Department of Medicine I, Medical University of Vienna, Austria). A549 cells were grown in Eagle’s Minimal Essential Medium (EMEM) supplemented with 10% heat-inactivated fetal bovine serum.
(§3) Assay for Cytotoxic Effect: The effects of increasing concentrations of the compounds on cell growth were tested in 96-well flat-bottomed microtiter plates, as described for the antiproliferative assay, using 1 × 10^4 cells/well. The culture plates were incubated at 37 °C for 24 h; at the end of the incubation period, 20 μL of MTT solution (from a 5 mg/mL stock solution) was added to each well. After incubation at 37 °C for 4 h, 100 μL of sodium dodecyl sulfate (SDS) solution (10% SDS in 0.01 M HCl) was added to each well, and the plates were further incubated at 37 °C overnight. Cell growth was determined by measuring the optical density (OD) at 540 nm (ref 630 nm) with a Multiscan EX ELISA reader (Thermo Labsystems, Cheshire, WA, USA).
(§4) Sample preparation: The compounds were dissolved in DMSO to achieve the final concentration of 5 mM. The starting concentration of the compounds was 100 µM and 2-fold serial dilutions were prepared for the antiproliferative and cytotoxic assays. The following concentrations were used: 100-50-25-12.5-6.25-3.125-1.56-0.78-0.39-0.195 µM.

[7] = tested on: A549; assay: Antiproliferative MTT assay, 72 h; assay type: cell-based; settings: Homo sapiens, 6 × 10^3 cells/well, non-small cell lung cancer
Procedure: (§1) Antiproliferative Assays: The antiproliferative effect of the compounds was tested in decreasing serial dilutions of compounds (starting with 100 µM, then two-fold serial dilution) on human cell lines (Colo 205, Colo 320, MCF-7, A549, and MRC-5) in 96-well flat-bottomed microtiter plates. Firstly, the compounds were diluted in 100 µL of the medium, and then, 6 × 10^3 cells (Colo 205, Colo 320) in 100 µL of RPMI medium were added to each well, excluding the medium control wells. The adherent MCF-7, A549, and MRC-5 cells (6 × 10^3 cells/well) were seeded in EMEM medium for at least 4 h before the assay. The two-fold serial dilutions of the compounds were made in a separate plate (100–0.19 μM) and then transferred to the plates containing the adherent-corresponding cell line. […] The percentage of inhibition of cell growth was determined according to Equation (1), and expressed as IC50 values, defined as the concentration that induces 50% growth inhibition. IC50 values and the standard deviation (SD) of triplicate experiments were calculated using GraphPad Prism 5 software for Windows. Doxorubicin (2 mg/mL, Teva Pharmaceuticals, Budapest, Hungary) was used as a positive control and the vehicle DMSO as the negative control (Table 3). (1) […][ODsample−ODmedium control/ODcell control−ODmedium control]×100

[8] = tested on: MRC-5; assay: Antiproliferative MTT assay, 72 h; assay type: cell-based; settings: Homo sapiens, MRC5, 6 × 10^3 cells/well, normal embryonic lung fibroblast
Procedure: as §1

[9] = tested on: Colo 320; assay: Antiproliferative MTT assay, 72 h; assay type: cell-based; settings: Homo sapiens, 6 × 10^3 cells/well, resistant colon adenocarcinoma
Procedure: as §1

[10] = tested on: Colo 205; assay: Cytotoxic MTT assay, 24 h; settings: Homo sapiens, COLO 205, 24 h, read-out: Cytotoxic activity IC50 Colo 205 (A) Mean
Procedure: as §2, §3, §4

[11] = tested on: Colo 320; assay: Cytotoxic MTT assay, 24 h; settings: for IC50: Homo sapiens, COLO 320, 24 h, read-out: Cytotoxic activity IC50 Colo 320 (B) Mean; for RR (relative resistance ratio) (B/A): IC50 resistant (Colo 320)/IC50 sensitive (Colo 205), cytotoxic assay
Procedure: as §2, §3, §4

[12] = tested on: MCF-7; assay: Antiproliferative MTT assay, 72 h; assay type: cell-based, human; settings: for IC50: Homo sapiens, MCF7, MTT, 72 h, 6 × 10^3 cells/well, breast cancer; for Selectivity index (SI), MCF-7: antiproliferative assay, MCF-7 versus non-cancerous MRC-5
Procedure: as §1

[13] = tested on: Colo 205; assay: Antiproliferative MTT assay, 72 h; assay type: cell-based, human; settings: for IC50: MTT, 72 h, 6 × 10^3 cells/well, sensitive colon adenocarcinoma; for Selectivity index (SI), Colo 205: antiproliferative assay, Colo 205 versus non-cancerous MRC-5
Procedure: as §1

[14] = tested on: MCF-7; assay: Cytotoxic MTT assay, 24 h; settings: Homo sapiens, MCF7, 24 h, read-out: Cytotoxic activity IC50 MCF-7 Mean
Procedure: as §2, §3, §4

[15] = tested on: A549; assay: Cytotoxic MTT assay, 24 h; settings: Homo sapiens, A549, 24 h, read-out: Cytotoxic activity IC50 A549 Mean
Procedure: as §2, §3, §4

[16] = tested on: MCF-7
Procedure: as §2, §3, §4

[17] = in vitro; settings: human
Procedure: as §2, §3, §4

[18] = tested on: p-glycoprotein (ABCB1) efflux pump; parameters: method as in PMID 35293752; settings: resistant Colo 320 cells; cited from earlier work
[19] = tested on: treated cancer cells; assay: Antiproliferative MTT assay, summary over cancer cell lines; assay type: cell-based, human; settings: versus MRC-5
Procedure: as §1

| Compound | IC50 [7] [µM] | IC50 [8] [µM] | IC50 [9] [µM] | IC50 [10] [µM] | IC50 [11] [µM] | RR (relative resistance ratio) (B/A) [11] | IC50 [12] [µM] | IC50 ([13]; Homo sapiens, COLO 205, 72 h) [µM] | IC50 [14] [µM] | IC50 [15] [µM] | IC50 at 24 h [17] [µM] | further results |
| --- | --- | --- | --- | --- | --- | --- | --- | --- | --- | --- | --- | --- |
| Pholiol F |  |  |  |  |  |  |  |  |  |  |  | IC50 [1]: 194 µM; IC50 [2]: 440 µM |
| CC(C)[C@@H](C)/C=C/[C@@H](C)[C@H]1CC[C@H]2C3=CC=C4C[C@@H](O)CC[C@]4(C)[C@H]3CC[C@]12C [Ergosterol] |  |  |  |  |  |  |  |  |  |  |  | IC50 [3]: 6.5 µM; IC50 [4]: 4.9 µM |
| COC(=O)C[C@@](C)(O)CC(=O)O[C@@H]1C[C@]2(C)C3=C(CC[C@H]2C(C)(C)[C@H]1OC(C)=O)[C@]1(C)CC[C@H]([C@H](C)CCC(=O)C(C)(C)O)[C@@]1(C)[C@H](O)C3 [pholiol D] |  |  |  |  |  |  |  |  |  |  |  | Drug interaction with doxorubicin [5]: interacted in a synergistic manner |
| COc1cccc2c1C(=O)c1c(O)c3c(c(O)c1C2=O)C[C@@](O)(C(=O)CO)C[C@@H]3O[C@H]1C[C@H](N)[C@H](O)[C@H](C)O1 [Dox, doxorubicin, reference compound] | 1.04 | 0.52 | 0.25 | 3.32 | 12 | 3.60 | 0.155 | 0.0617 | 5.73 | 10.2 |  | IC50 at 24 h [6]: 3.6 µM |
| COC(=O)CC(C)(O)CC(=O)OC1CC2(C)C3=C(C(=O)CC2C(C)(C)C1OC(C)=O)C1(C)CCC(C(C)CCC(=O)C(C)(C)O)C1(C)CC3O (stereo not drawn) [Compound 2, pholiol M] | > 100 | > 100 | 32.5 | 35.9 | 67.2 | 1.87 | 2.48 | 23.9 | > 100 | 58.1 | > 100 | Cytotoxic activity IC50 MCF-7 Mean [16]: did not show a cytotoxic effect; Selectivity index (SI), MCF-7 [12]: > 40; Selectivity index (SI), Colo 205 [13]: > 4.18 |
| pholiol A |  |  |  |  |  |  |  |  |  |  |  | p-glycoprotein (ABCB1) efflux pump inhibitory activity [18]: inhibitory activity was found |
| COC(=O)C[C@@](C)(O)CC(=O)O[C@@H]1C[C@]2(C)C3=C(C(=O)C[C@H]2C(C)(C)[C@H]1OC(C)=O)[C@]1(C)CC[C@H]([C@H](C)CCC(=O)O)[C@@]1(C)CC3 [Compound 8, pholiol S] | 89.8 | > 100 | 68.5 | 57.5 | 57.5 | 1.0 | 35.3 | 59.9 | 43 | 83.7 | 55.3 | Selectivity to cancerous cell lines over normal cells [19]: did not display selectivity |
| COC(=O)C[C@@](C)(O)CC(=O)O[C@@H]1C[C@]2(C)C3=C(C(=O)C[C@H]2C(C)(C)[C@H]1OC(C)=O)[C@]1(C)CC[C@H]([C@H](C)CCC(=O)C(C)(C)O)[C@@]1(C)CC3=O [Compound 4, pholiol O] | 51.5 | 42.9 | 42.1 | 31.5 | 91.5 | 2.90 | 9.95 | 23.3 | > 100 | 56.9 | 58 | Cytotoxic activity IC50 MCF-7 Mean [16]: did not show a cytotoxic effect; Selectivity index (SI), MCF-7 [12]: 4.3; IC50 [13]: 23.4 µM; Selectivity index (SI), Colo 205 [13]: 1.8 |
| COC(=O)CC(C)(O)CC(=O)OC1C(O)CC2(C)C3=C(C(=O)CC2C1(C)C)C1(C)CCC(C(C)CCC(=O)C(C)(C)O)C1(C)CC3 (stereo not drawn) [Compound 1, pholiol L] | 53.7 | 70.9 | 28.1 | 40.3 | 33.9 | 0.84 | 21.7 | 32.4 | 43.7 | 93.6 | 66.1 | Selectivity to cancerous cell lines over normal cells [19]: did not display selectivity |
| COC(=O)C[C@@](C)(O)CC(=O)O[C@@H]1C[C@]2(C)C3=C(C(=O)C[C@H]2C(C)(C)[C@H]1OC(C)=O)[C@]1(C)CC[C@H]([C@H](C)CCC(=O)C(C)(C)O)[C@@]1(C)CC3 [pholiol B] |  |  |  |  |  |  |  |  |  |  |  | Drug interaction with doxorubicin [5]: interacted in a synergistic manner; p-glycoprotein (ABCB1) efflux pump inhibitory activity [18]: inhibitory activity was found |
| CC(=O)O[C@H]1[C@H](OC(=O)C[C@](C)(O)CC(=O)O)C[C@]2(C)C3=CC[C@]4(C)[C@@H]([C@H](C)CCC(=O)C(C)(C)O)CC[C@@]4(C)C3=CC[C@H]2C1(C)C [Compound 6, pholiol Q] | 51.2 | > 100 | 69.2 | 56.1 | 34.7 | 0.62 | 46.3 | 50 | 43.8 | 85.9 | > 100 | Selectivity to cancerous cell lines over normal cells [19]: did not display selectivity |
